Earlier results, collected in PMC8696521 (RSC Advances, 2021).
pIC50: −log10 of the molar value. Read-outs that look alike come from different tables or passages of the source. One block for each substance: values may come before it.

Tests used:
ACE = details: for Category of ACEI peptide by interaction with ACE: reduced IC50 values following incubation with ACE
[1] = peptide from P. fucata muscle

Substance: FHAPWK
ACE inhibition pattern (ACE): competitive inhibitors

Substance: GAGLPGKRER
Antioxidant activity [1]: strong antioxidant activity

ACEI IC50 (ACE; from pearl oyster shell protein hydrolysate): 5.82 µg/mL
Substance: GVGSPY

Substance: IKPVA
Category of ACEI peptide by interaction with ACE (ACE): pro-drug substrates

Substance: IKPVQ
Category of ACEI peptide by interaction with ACE (ACE): pro-drug substrates

pIC50 (ACE; read-out: ACEI IC50): 6.96
Substance: LIVT

Substance: LSGYGP
ACE inhibition pattern (ACE): noncompetitive

Substance: VVSLSIPR
ACE inhibition pattern (ACE): competitive inhibitors

Substance: WVYY
ACE inhibition pattern (ACE; hemp seed protein hydrolysate peptides): mixed-mode type of ACE inhibition
